Source: ChEMBL document CHEMBL3045107, “A facile green synthesis and in vitro antimicrobial activity 4H-pyrimido[2,1-b][1,3]benzothiazole derivatives using aluminum trichloride under solvent free conditions” (Med Chem Res, 2012)
Converted amounts (≈) assume the structure as drawn. The source made the active and inactive calls. No cut-off for these calls is given here.

Test system: Staphylococcus aureus
Test: Antibacterial activity against Staphylococcus aureus ATCC 11632 after 24 hr by broth microdilution method
Type: functional
Conditions: ATCC 11632, 24 h

SMILES | MIC
CCOC(=O)C1=C(C)N=C2Sc3ccccc3N2C1c1c(Cl)cccc1Cl (configuration not stated) | 12.5 µg/mL (≈ 29.8 µM)
CCOC(=O)C1=C(C)N=C2Sc3ccccc3N2C1c1ccc(O)cc1 (configuration not stated) | 12.5 µg/mL (≈ 34.1 µM)
O=C(O)c1cn(C2CC2)c2cc(N3CCNCC3)c(F)cc2c1=O [CIPROFLOXACIN] | 3.25 µg/mL (≈ 9.81 µM)
CCOC(=O)C1=C(C)N=C2Sc3ccccc3N2C1c1ccc(O)c(OC)c1 (configuration not stated) | 25 µg/mL (≈ 63.1 µM)
CCOC(=O)C1=C(C)N=C2Sc3ccccc3N2C1c1ccc(OC)cc1 (configuration not stated) | 6.25 µg/mL (≈ 16.4 µM)

Test system: Pseudomonas aeruginosa
Test: Antibacterial activity against Pseudomonas aeruginosa ATCC 15499 at 0.78 to 50 ug/ml after 24 hr by broth microdilution method
Type: functional, organism-based
Conditions: not given

SMILES | Activity
CCOC(=O)C1=C(C)N=C2Sc3ccccc3N2C1c1ccc(O)c(OC)c1 (configuration not stated) | inactive

Test system: not listed separately
Test: Cytotoxicity against Homo sapiens (human) L123 cells after 48 hr by MTT assay
Type: cell-based
Parameters: unit not given here
Conditions: not given

SMILES | IC50
CCOC(=O)C1=C(C)N=C2Sc3ccccc3N2C1c1c(Cl)cccc1Cl (configuration not stated) | > 100
CCOC(=O)C1=C(C)N=C2Sc3ccccc3N2C1c1ccc(O)cc1 (configuration not stated) | 50
CCOC(=O)C1=C(C)N=C2Sc3ccccc3N2C1c1ccc(O)c(OC)c1 (configuration not stated) | 50
CCOC(=O)C1=C(C)N=C2Sc3ccccc3N2C1c1ccc(OC)cc1 (configuration not stated) | > 100

Test system: Aspergillus fumigatus
Test: Antifungal activity against Aspergillus fumigatus after 72 hr by broth microdilution method
Type: functional
Conditions: not given

SMILES | MIC
CCOC(=O)C1=C(C)N=C2Sc3ccccc3N2C1c1c(Cl)cccc1Cl (configuration not stated) | 6.25 µg/mL (≈ 14.9 µM)
CCOC(=O)C1=C(C)N=C2Sc3ccccc3N2C1c1ccc(OC)cc1 (configuration not stated) | 6.25 µg/mL (≈ 16.4 µM)

Test system: Aspergillus niger
Test: Antifungal activity against Aspergillus niger after 72 hr by broth microdilution method
Type: functional
Conditions: not given

SMILES | MIC
CCOC(=O)C1=C(C)N=C2Sc3ccccc3N2C1c1ccc(O)cc1 (configuration not stated) | 6.25 µg/mL (≈ 17.1 µM)
CCOC(=O)C1=C(C)N=C2Sc3ccccc3N2C1c1ccc(O)c(OC)c1 (configuration not stated) | 6.25 µg/mL (≈ 15.8 µM)
CCOC(=O)C1=C(C)N=C2Sc3ccccc3N2C1c1ccc(OC)cc1 (configuration not stated) | 6.25 µg/mL (≈ 16.4 µM)

Test system: Salmonella typhi
Test: Antibacterial activity against Salmonella enterica subsp. enterica serovar Typhi ATCC 23564 at 0.78 to 50 ug/ml after 24 hr by broth microdilution method
Type: functional, organism-based
Conditions: not given

SMILES | Activity
CCOC(=O)C1=C(C)N=C2Sc3ccccc3N2C1c1ccc(O)c(OC)c1 (configuration not stated) | inactive

Test system: Salmonella typhi
Test: Antibacterial activity against Salmonella enterica subsp. enterica serovar Typhi ATCC 23564 after 24 hr by broth microdilution method
Type: functional
Conditions: ATCC 23564, 24 h

SMILES | MIC
CCOC(=O)C1=C(C)N=C2Sc3ccccc3N2C1c1c(Cl)cccc1Cl (configuration not stated) | 25 µg/mL (≈ 59.6 µM)
CCOC(=O)C1=C(C)N=C2Sc3ccccc3N2C1c1ccc(O)cc1 (configuration not stated) | 25 µg/mL (≈ 68.2 µM)
O=C(O)c1cn(C2CC2)c2cc(N3CCNCC3)c(F)cc2c1=O [CIPROFLOXACIN] | 3.25 µg/mL (≈ 9.81 µM)
CCOC(=O)C1=C(C)N=C2Sc3ccccc3N2C1c1ccc(OC)cc1 (configuration not stated) | 12.5 µg/mL (≈ 32.9 µM)

Test system: Providencia rettgeri
Test: Antibacterial activity against Providencia rettgeri isolated from infected fish after 24 hr by broth microdilution method
Type: functional
Conditions: not given

SMILES | MIC
CCOC(=O)C1=C(C)N=C2Sc3ccccc3N2C1c1c(Cl)cccc1Cl (configuration not stated) | 12.5 µg/mL (≈ 29.8 µM)
CCOC(=O)C1=C(C)N=C2Sc3ccccc3N2C1c1ccc(O)cc1 (configuration not stated) | 12.5 µg/mL (≈ 34.1 µM)
O=C(O)c1cn(C2CC2)c2cc(N3CCNCC3)c(F)cc2c1=O [CIPROFLOXACIN] | 1.62 µg/mL (≈ 4.89 µM)
CCOC(=O)C1=C(C)N=C2Sc3ccccc3N2C1c1ccc(O)c(OC)c1 (configuration not stated) | 25 µg/mL (≈ 63.1 µM)
CCOC(=O)C1=C(C)N=C2Sc3ccccc3N2C1c1ccc(OC)cc1 (configuration not stated) | 6.25 µg/mL (≈ 16.4 µM)

Test system: Bacillus cereus
Test: Antibacterial activity against Bacillus cereus MTCC 7350 after 24 hr by broth microdilution method
Type: functional
Conditions: MTCC 7350, 24 h

SMILES | MIC
CCOC(=O)C1=C(C)N=C2Sc3ccccc3N2C1c1c(Cl)cccc1Cl (configuration not stated) | 6.25 µg/mL (≈ 14.9 µM)
CCOC(=O)C1=C(C)N=C2Sc3ccccc3N2C1c1ccc(O)cc1 (configuration not stated) | 6.25 µg/mL (≈ 17.1 µM)
O=C(O)c1cn(C2CC2)c2cc(N3CCNCC3)c(F)cc2c1=O [CIPROFLOXACIN] | 1.62 µg/mL (≈ 4.89 µM)
CCOC(=O)C1=C(C)N=C2Sc3ccccc3N2C1c1ccc(O)c(OC)c1 (configuration not stated) | 12.5 µg/mL (≈ 31.5 µM)
CCOC(=O)C1=C(C)N=C2Sc3ccccc3N2C1c1ccc(OC)cc1 (configuration not stated) | 6.25 µg/mL (≈ 16.4 µM)

Test system: Escherichia coli
Test: Antibacterial activity against Escherichia coli ATCC 35218 after 24 hr by broth microdilution method
Type: functional
Conditions: ATCC 35218, 24 h

SMILES | MIC
CCOC(=O)C1=C(C)N=C2Sc3ccccc3N2C1c1c(Cl)cccc1Cl (configuration not stated) | 6.25 µg/mL (≈ 14.9 µM)
CCOC(=O)C1=C(C)N=C2Sc3ccccc3N2C1c1ccc(O)cc1 (configuration not stated) | 6.25 µg/mL (≈ 17.1 µM)
O=C(O)c1cn(C2CC2)c2cc(N3CCNCC3)c(F)cc2c1=O [CIPROFLOXACIN] | 1.62 µg/mL (≈ 4.89 µM)
CCOC(=O)C1=C(C)N=C2Sc3ccccc3N2C1c1ccc(O)c(OC)c1 (configuration not stated) | 25 µg/mL (≈ 63.1 µM)
CCOC(=O)C1=C(C)N=C2Sc3ccccc3N2C1c1ccc(OC)cc1 (configuration not stated) | 6.25 µg/mL (≈ 16.4 µM)

Test system: Aspergillus flavus
Test: Antifungal activity against Aspergillus flavus after 72 hr by broth microdilution method
Type: functional
Conditions: not given

SMILES | MIC
CCOC(=O)C1=C(C)N=C2Sc3ccccc3N2C1c1c(Cl)cccc1Cl (configuration not stated) | 12.5 µg/mL (≈ 29.8 µM)

Test system: Aspergillus niger
Test: Antifungal activity against Aspergillus niger at 0.78 to 50 ug/ml after 72 hr by broth microdilution method
Type: functional
Conditions: not given

SMILES | Activity | inhibition zone (IZ)
CCOC(=O)C1=C(C)N=C2Sc3ccccc3N2C1c1c(Cl)cccc1Cl (configuration not stated) | inactive | 
CCOC(=O)C1=C(C)N=C2Sc3ccccc3N2C1c1ccc(O)cc1 (configuration not stated) |  | 15 mm
CCOC(=O)C1=C(C)N=C2Sc3ccccc3N2C1c1ccc(O)c(OC)c1 (configuration not stated) |  | 10 mm
CCOC(=O)C1=C(C)N=C2Sc3ccccc3N2C1c1ccc(OC)cc1 (configuration not stated) |  | 16 mm

Test system: Pseudomonas aeruginosa
Test: Antibacterial activity against Pseudomonas aeruginosa ATCC 15499 after 24 hr by broth microdilution method
Type: functional
Conditions: ATCC 15499, 24 h

SMILES | MIC
CCOC(=O)C1=C(C)N=C2Sc3ccccc3N2C1c1c(Cl)cccc1Cl (configuration not stated) | 12.5 µg/mL (≈ 29.8 µM)
CCOC(=O)C1=C(C)N=C2Sc3ccccc3N2C1c1ccc(O)cc1 (configuration not stated) | 12.5 µg/mL (≈ 34.1 µM)
O=C(O)c1cn(C2CC2)c2cc(N3CCNCC3)c(F)cc2c1=O [CIPROFLOXACIN] | 1.62 µg/mL (≈ 4.89 µM)
CCOC(=O)C1=C(C)N=C2Sc3ccccc3N2C1c1ccc(OC)cc1 (configuration not stated) | 6.25 µg/mL (≈ 16.4 µM)

Test system: Aspergillus fumigatus
Test: Antifungal activity against Aspergillus fumigatus at 0.78 to 50 ug/ml after 72 hr by broth microdilution method
Type: functional
Conditions: not given

SMILES | Activity | inhibition zone (IZ)
CCOC(=O)C1=C(C)N=C2Sc3ccccc3N2C1c1c(Cl)cccc1Cl (configuration not stated) | inactive | 
CCOC(=O)C1=C(C)N=C2Sc3ccccc3N2C1c1ccc(O)cc1 (configuration not stated) |  | 12 mm
CCOC(=O)C1=C(C)N=C2Sc3ccccc3N2C1c1ccc(O)c(OC)c1 (configuration not stated) | inactive | 
CCOC(=O)C1=C(C)N=C2Sc3ccccc3N2C1c1ccc(OC)cc1 (configuration not stated) |  | 20 mm

Test system: Aspergillus flavus
Test: Antifungal activity against Aspergillus flavus at 0.78 to 50 ug/ml after 72 hr by broth microdilution method
Type: functional
Conditions: not given

SMILES | Activity | inhibition zone (IZ)
CCOC(=O)C1=C(C)N=C2Sc3ccccc3N2C1c1c(Cl)cccc1Cl (configuration not stated) | inactive | 
CCOC(=O)C1=C(C)N=C2Sc3ccccc3N2C1c1ccc(O)cc1 (configuration not stated) | inactive | 
CCOC(=O)C1=C(C)N=C2Sc3ccccc3N2C1c1ccc(O)c(OC)c1 (configuration not stated) | inactive | 
CCOC(=O)C1=C(C)N=C2Sc3ccccc3N2C1c1ccc(OC)cc1 (configuration not stated) |  | 18 mm
